Our source for the IC50 values is patent US20240174662A1, “SMALL MOLECULE INHIBITORS OF SALT INDUCIBLE KINASES” (Janssen Biotech, Inc., priority 2021, published 2024).

The test addresses SIK2 (Homo sapiens (Human), UniProt Q9H0K1). Nature of the test: SIK2 Enzymatic Assay Version 2 (High ATP). The conditions noted are these: 3 mM ATP and 200 μM HDAC5tide final, ADP-Glo Max luminescence. It is filed as biochemical. Here is the method:
All steps were performed at room temperature. Compounds were pre-plated onto an assay plate using an Echo acoustic dispenser (Labcyte, […] or […]) at 80 nL per well. Enzyme prepared in assay buffer at 6 nM (2× final concentration) was added at 4 μL per well using the Multidrop Combi (Thermo Fisher-used for all additions in this assay) to the assay plate, spun for 1 min at 1000 rpm (Allegra 6KR Beckman Coulter centrifuge), and incubated with compound for 30 minutes. […] ADP-Glo Max Reagent (prepared and aliquoted as per manufacturer instructions) was then added at 8 μL per well, spun and incubated for 2 hours. ADP-Glo Max Detection (prepared and aliquoted as per manufacturer instructions) was added at 8 μL per well to the assay plate, which was spun and incubated for 1 hour. The plate was then read on the Pherastar (BMG Labtech) using a luminescence read. Gain was set between 2200-2500.
In general terms: ADP-Glo first removes unused ATP, then detects ADP through luciferase.

SIK2, sequence (Q9H0K1 whole entry, species assumed): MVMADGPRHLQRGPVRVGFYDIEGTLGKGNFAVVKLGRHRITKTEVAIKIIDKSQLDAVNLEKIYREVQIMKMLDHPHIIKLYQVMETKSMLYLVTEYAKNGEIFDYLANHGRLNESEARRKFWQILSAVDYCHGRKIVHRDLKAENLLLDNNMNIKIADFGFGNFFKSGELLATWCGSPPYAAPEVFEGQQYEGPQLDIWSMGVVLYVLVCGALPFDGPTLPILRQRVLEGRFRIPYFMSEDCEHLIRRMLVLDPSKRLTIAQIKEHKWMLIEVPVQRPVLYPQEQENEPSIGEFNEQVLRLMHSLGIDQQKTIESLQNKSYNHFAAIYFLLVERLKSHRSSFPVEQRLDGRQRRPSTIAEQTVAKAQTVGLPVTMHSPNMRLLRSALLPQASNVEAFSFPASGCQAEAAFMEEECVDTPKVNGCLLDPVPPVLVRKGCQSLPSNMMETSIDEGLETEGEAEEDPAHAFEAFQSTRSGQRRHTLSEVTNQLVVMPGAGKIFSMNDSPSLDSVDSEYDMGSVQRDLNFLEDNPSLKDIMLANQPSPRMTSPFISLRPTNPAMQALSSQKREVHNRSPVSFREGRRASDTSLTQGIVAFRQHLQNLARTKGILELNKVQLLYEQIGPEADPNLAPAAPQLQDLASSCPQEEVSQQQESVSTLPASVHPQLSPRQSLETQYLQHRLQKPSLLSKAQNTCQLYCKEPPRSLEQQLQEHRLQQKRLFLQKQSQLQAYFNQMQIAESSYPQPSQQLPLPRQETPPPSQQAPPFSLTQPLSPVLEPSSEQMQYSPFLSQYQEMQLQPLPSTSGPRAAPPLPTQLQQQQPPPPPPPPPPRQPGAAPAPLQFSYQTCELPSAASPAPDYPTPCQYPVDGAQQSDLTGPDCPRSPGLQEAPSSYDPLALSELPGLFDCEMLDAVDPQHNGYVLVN

In turn, `Cc1nc(Nc2cc3cc(-c4c(OC[C@H]5CCN5C)cnn4C)ccn3n2)cc(C(=O)N(C)C)n1` [Example 108, N,N,2-trimethyl-6-[[5-[2-methyl-4-[[(2R)-1-methylazetidin-2-yl]methoxy]pyrazol-3-yl]pyrazolo[1,5-a]pyridin-2-yl]amino]pyrimidine-4-carboxamide] showed an IC50 of 0.0033 µM.
For `Cc1ncc(Nc2cc3cc(-c4c(OC[C@H]5CCN5C)cnn4C)ccn3n2)nc1C` [Example 23, N-(5,6-Dimethylpyrazin-2-yl)-5-[2-methyl-4-[[(2R)-1-methylazetidin-2-yl]methoxy]pyrazol-3-yl]pyrazolo[1,5-a]pyridin-2-amine], it took 0.0012 µM to reach half-maximal inhibition (IC50).
As to `Cc1cc(Nc2cc3cc(-c4c(OC[C@H]5CCN5)cnn4C)ccn3n2)nnc1C` [Example 275, 5-[4-[[(2R)-azetidin-2-yl]methoxy]-2-methyl-pyrazol-3-yl]-N-(5,6-dimethylpyridazin-3-yl)pyrazolo[1,5-a]pyridin-2-amine], the IC50 worked out at 0.0322 µM.
`Cn1ncc(OC[C@H]2CCN2)c1-c1ccn2nc(Nc3ccc(C4CC4)nn3)cc2c1` [Example 394, 5-[4-[[(2R)-azetidin-2-yl]methoxy]-2-methyl-pyrazol-3-yl]-N-(6-cyclopropylpyridazin-3-yl)pyrazolo[1,5-a]pyridin-2-amine]: the half-maximal inhibitory concentration (IC50) was determined as 0.103 µM.
With `Cc1cc(C)c(Nc2cc3cc(-c4c(OC[C@H]5CCN5C)cnn4C)ccn3n2)nn1` [Example 61, N-(4,6-dimethylpyridazin-3-yl)-5-[2-methyl-4-[[(2R)-1-methylazetidin-2-yl]methoxy]pyrazol-3-yl]pyrazolo[1,5-a]pyridin-2-amine] the figure was 1.14 µM; with `CCN1CC[C@@H]1COc1cnn(C)c1-c1ccc2nc(Nc3cc(C)nc(C)n3)cn2c1` [Example 476, N-(2,6-dimethylpyrimidin-4-yl)-6-[4-[[(2R)-1-ethylazetidin-2-yl]methoxy]-2-methyl-pyrazol-3-yl]imidazo[1,2-a]pyridin-2-amine], 0.0031 µM; with `CO[C@]1(COc2cnn(C(F)F)c2-c2ccn3nc(Nc4cc(C)nc(C)n4)cc3c2)CCNC1` (single isomer, unassigned) [Example 261, (*R)-5-(1-(difluoromethyl)-4-((3-methoxypyrrolidin-3-yl)methoxy)-1H-pyrazol-5-yl)-N-(2,6-dimethylpyrimidin-4-yl)pyrazolo[1,5-a]pyridin-2-amine], 0.0055 µM.
With `CCN1CC[C@@H]1COc1cnn(C(F)F)c1-c1ccn2nc(Nc3ccnc(OC)n3)cc2c1` [Example 481, 5-[2-(difluoromethyl)-4-[[(2R)-1-ethylazetidin-2-yl]methoxy]pyrazol-3-yl]-N-(2-methoxypyrimidin-4-yl)pyrazolo[1,5-a]pyridin-2-amine] the figure was 0.0176 µM.
Turning to `CN1CC[C@H](Oc2cnn(C)c2-c2ccn3nc(Nc4cnc5ccccc5n4)cc3c2)C1` [Example 343, N-[5-[2-methyl-4-[(3S)-1-methylpyrrolidin-3-yl]oxy-pyrazol-3-yl]pyrazolo[1,5-a]pyridin-2-yl]quinoxalin-2-amine], the IC50 was 0.0548 µM.
Molecule `Cn1ncc(OC[C@H]2CCCN2CCF)c1-c1ccn2nc(NC(=O)C3CC3)cc2c1` [Example 350, N-[5-[4-[[(2R)-1-(2-fluoroethyl)pyrrolidin-2-yl]methoxy]-2-methyl-pyrazol-3-yl]pyrazolo[1,5-a]pyridin-2-yl]cyclopropanecarboxamide] came in with an IC50 of 0.0662 µM.
With `Cc1onc(OC[C@](C)(N)c2ccccc2)c1-c1ccn2nc(NC(=O)C3CC3)cc2c1` [Example 326, N-[5-[3-[(2R)-2-amino-2-phenyl-propoxy]-5-methyl-isoxazol-4-yl]pyrazolo[1,5-a]pyridin-2-yl]cyclopropanecarboxamide] the figure was 0.06 µM.
`CN1CC[C@@H]1COc1cnn(C)c1-c1ccn2nc(NC(=O)[C@H]3C[C@H]3c3ccccc3)cc2c1` (single isomer, unassigned) [Example 159, (1*S,2*R)—N-(5-(1-methyl-4-(((R)-1-methylazetidin-2-yl)methoxy)-1H-pyrazol-5-yl)pyrazolo[1,5-a]pyridin-2-yl)-2-phenylcyclopropane-1-carboxamide]: the 50% inhibitory concentration (IC50) turned out to be 0.0242 µM.
`Cc1cc(Nc2cc3cc(-c4c(OC[C@H]5CCN5C)cnn4C)ccn3n2)nc(C(F)F)n1` [Example 102, N-[2-(difluoromethyl)-6-methyl-pyrimidin-4-yl]-5-[2-methyl-4-[[(2R)-1-methylazetidin-2-yl]methoxy]pyrazol-3-yl]pyrazolo[1,5-a]pyridin-2-amine] registered an IC50 below 0.000847 µM.
In the case of `CCN1CC[C@@H]1COc1cnn(C)c1-c1ccn2nc(Nc3ncc(C)c(C)n3)cc2c1` [Example 165, N-(4,5-dimethylpyrimidin-2-yl)-5-[4-[[(2R)-1-ethylazetidin-2-yl]methoxy]-2-methyl-pyrazol-3-yl]pyrazolo[1,5-a]pyridin-2-amine], the half-inhibitory concentration (IC50) came to 0.0262 µM.
Molecule `Cc1cc(Nc2cc3cc(-c4c(OC[C@H]5C[C@H](O)C5)cnn4C)ccn3n2)nc(C)n1` [Example 438, 3-[[5-[2-[(2,6-dimethylpyrimidin-4-yl)amino]pyrazolo[1,5-a]pyridin-5-yl]-1-methyl-pyrazol-4-yl]oxymethyl]cyclobutanol] displayed an IC50 of 0.088 µM.
For `C[C@@H]1CNC[C@@H]1OCc1cnn(C)c1-c1ccn2nc(NC(=O)C3CC3)cc2c1` (single isomer, unassigned) [Example 196, (3*R, 4*R)—N-[5-[2-methyl-4-[(4-methylpyrrolidin-3-yl)oxymethyl]pyrazol-3-yl]pyrazolo[1,5-a]pyridin-2-yl]cyclopropanecarboxamide], the IC50 was determined as 0.0247 µM.
`Cc1nccc(Nc2cc3cc(-c4c(O[C@H]5CCN(C)C5)cnn4C)ccn3n2)n1` [Example 456, 5-[2-methyl-4-[(3S)-1-methylpyrrolidin-3-yl]oxy-pyrazol-3-yl]-N-(2-methylpyrimidin-4-yl)pyrazolo[1,5-a]pyridin-2-amine]: the IC50 came out at 0.102 µM.
Next, `COCc1cc(Nc2cc3cc(-c4c(O[C@H]5CCN(C)C5)cnn4C)ccn3n2)ncn1` [Example 461, N-[6-(methoxymethyl)pyrimidin-4-yl]-5-[2-methyl-4-[(3S)-1-methylpyrrolidin-3-yl]oxy-pyrazol-3-yl]pyrazolo[1,5-a]pyridin-2-amine]: 0.0724 µM; `COCCN1CC[C@@H]1COc1cnn(C)c1-c1ccn2nc(NC(=O)C3CC3)cc2c1` [Example 243, N-[5-[4-[[(2R)-1-(2-methoxyethyl)azetidin-2-yl]methoxy]-2-methyl-pyrazol-3-yl]pyrazolo[1,5-a]pyridin-2-yl]cyclopropanecarboxamide]: 0.0113 µM; `CN1CC[C@H](Oc2cnn(C)c2-c2ccn3nc(Nc4ccccn4)cc3c2)C1` [Example 452, 5-[2-methyl-4-[(3S)-1-methylpyrrolidin-3-yl]oxy-pyrazol-3-yl]-N-(2-pyridyl)pyrazolo[1,5-a]pyridin-2-amine]: 0.135 µM.
Turning to `Cc1onc(OCC2(F)CNC2)c1-c1ccn2nc(NC(=O)C3CC3)cc2c1` [Example 83, N-[5-[3-[(3-fluoroazetidin-3-yl)methoxy]-5-methyl-isoxazol-4-yl]pyrazolo[1,5-a]pyridin-2-yl]cyclopropanecarboxamide], the IC50 was 0.0109 µM.
With `CN1CC(COc2cnn(C)c2-c2ccn3nc(NC(=O)C4CC4)cc3c2)(c2ccccc2)C1` [Example 410, N-[5-[2-methyl-4-[(1-methyl-3-phenyl-azetidin-3-yl)methoxy]pyrazol-3-yl]pyrazolo[1,5-a]pyridin-2-yl]cyclopropanecarboxamide], half-maximal inhibition (IC50) was put at 0.0725 µM.
`CN1CC[C@H](Oc2cnn(C)c2-c2ccc3nc(NC(=O)C4CC4)cn3c2)C1` [Example 472, N-[6-[2-methyl-4-[(3S)-1-methylpyrrolidin-3-yl]oxy-pyrazol-3-yl]imidazo[1,2-a]pyridin-2-yl]cyclopropanecarboxamide] registered an IC50 of 0.105 µM.
With `CN1C[C@H]2C[C@H]2[C@@H]1COc1cnn(C)c1-c1ccn2nc(NC(=O)C3CC3)cc2c1` [Example 432, N-[5-[2-methyl-4-[[(1S,4R,5R)-3-methyl-3-azabicyclo[3.1.0]hexan-4-yl]methoxy]pyrazol-3-yl]pyrazolo[1,5-a]pyridin-2-yl]cyclopropanecarboxamide] the figure was 0.0768 µM; with `Cc1ncc(Nc2cc3cc(-c4c(O[C@H]5CCN(C)C5)cnn4C)ccn3n2)nc1C` [Example 349, N-(5,6-dimethylpyrazin-2-yl)-5-[2-methyl-4-[(3S)-1-methylpyrrolidin-3-yl]oxy-pyrazol-3-yl]pyrazolo[1,5-a]pyridin-2-amine], 0.0559 µM; with `Cn1ncc(OC[C@H]2CCN2CC#N)c1-c1ccn2nc(NC(=O)C3CC3)cc2c1` [Example 425, N-[5-[4-[[(2R)-1-(cyanomethyl)azetidin-2-yl]methoxy]-2-methyl-pyrazol-3-yl]pyrazolo[1,5-a]pyridin-2-yl]cyclopropanecarboxamide], 0.155 µM.
`Cc1cnc(Nc2cc3cc(-c4c(COC5CN(C)CC5C)cnn4C)ccn3n2)cn1` (racemic) [Example 376, Rac-CIS-5-[4-[(1,4-dimethylpyrrolidin-3-yl)oxymethyl]-2-methyl-pyrazol-3-yl]-N-(5-methylpyrazin-2-yl)pyrazolo[1,5-a]pyridin-2-amine] displayed an IC50 of 0.0043 µM.
`Cc1ccc(Nc2cc3cc(-c4c(OC[C@H]5CCN5C)cnn4C(F)F)ccn3n2)nn1` [Example 98, 5-[2-(difluoromethyl)-4-[[(2R)-1-methylazetidin-2-yl]methoxy]pyrazol-3-yl]-N-(6-methylpyridazin-3-yl)pyrazolo[1,5-a]pyridin-2-amine] yielded an IC50 of 0.0079 µM.

The IC50 is the midpoint of a concentration-inhibition curve. A high value points to a need for much substance.
